Measurements as given in patent US11800866B2, “Methods for control of pests” (Bio-Gene Technology Limited, priority 2018, dated 2023).
In brackets after ≈: the same amount, converted by molar mass. Like-named read-outs stand apart in the source and are kept apart here.

Key:
Format in all cases: in vivo
[1] = test system: Russian Wheat Aphid (Diuraphis noxia); experiment: leaf dip method on wheat leaf segments, Russian Wheat Aphid; details: for LC50: concentration giving 50% mortality, 95% CIs
Protocol: The efficacy of flavesone against Russian Wheat Aphid (Diuraphis noxia) was assessed using the leaf dip method described in Moores et al 1994 (Pesticide Biochemistry and Physiology, 49, 114-120), adapted for use with cereal aphids by using wheat leaf segments.
Serially diluted concentrations of flavesone (1 to 30000 mg/L) were tested at rates designed to include the expected field rate in cereals (Table 1), along with a control of water. Leaf segments (25 mm) cut from wheat (Triticum aestivum) plants were submerged for 1 second in the insecticide solutions or water (control), and placed adaxial side up on 10 g/L agar in 35 mm petri dishes. Once leaves were air-dry, eight 3-4 day old D. noxia nymphs were transferred to insecticide-dipped leaf segments using a fine-haired paintbrush. The population used was originally collected from Dingee (VIC) and maintained in the laboratory under a 18:6 LD cycle at 12-20° C. since June 2016.
The petri dishes were then inverted onto a lid containing a 25 mm diameter filter paper to control humidity, and were placed at 18° C.±2° C. with a photoperiod of 16:8 LD cycle. Six replicates were used for each concentration tested, and responses were assessed after 48 and 96 hours. Aphids were scored as alive (vibrant and moving freely), dead (not moving over a 5 second period), or incapacitated (inhibited movement).
Dose-response curves were generated by plotting percentage mortality against log concentration. Mortality data was analysed using a logistic regression model with random effects. Logistic regression is suited for the analysis of binary response data (i.e. dead/alive) with the random effect component of the model controlling for the non-independence of mortality scores within replicates. […] Analyses were conducted using R version 3.3.1 (R Development Core Team 2018, R: A language and environment for statistical computing. R Foundation for Statistical Computing, Vienna, Austria. http//www.R-project.org).

[2] = test system: green peach aphid (Myzus persicae); experiment: leaf dip assay on Chinese cabbage leaves, green peach aphid
Protocol: The efficacy of flavesone against green peach aphid (Myzus persicae) was tested in a similar leaf dip assay as set out in Example 1, but used Chinese cabbage leaves, and 10 to 100,000 mg/L flavesone concentrations. The green peach aphids used were cultured in the laboratory from field collected insects.

[3] = test system: cotton aphid (Aphis gossypii); experiment: field trial, control of cotton aphid in cotton
Protocol: A field trial was conducted on a small plot of cotton in March 2018 to evaluate flavesone for the control of cotton aphid in cotton. The trial was conducted near Burren Junction in the Lower Namoi Valley Region of New South Wales, Australia. The trial was conducted in a crop grown as per standard commercial practice. It was precision planted on hills in rows 1 m apart and furrow flood irrigated. The crop was fully irrigated being watered as required over the duration of the season. The crop matured to produce good yield, typical of the region for the season. Light rainfall occurred at 6 and 7 days after treatment (DAT). The maximum temperature ranged from 28 to 38° C. and minimum temperature ranged from 14 to 23° C.
The plot was 4 m×8 m and four replicates were used. The plot was infested with cotton aphid at a moderate to high level with 36% of leaves infested pre-spray. The population on the untreated cotton increased over the duration of the trial with 83% leaves infested at 7 DAT.
The crop was either left untreated (control), treated with flavesone (Flavocide 500 EW) at varying concentrations or treated with Pirimor® (pirimicarb, positive control) as set out in Table 3:
The test solution was applied by broadcast method using a hand held boom sprayer with nozzles (Spraying Systems TT110015 flat fans) spaced 50 cm apart, with pressure being 250 kPa. Application speed was 1.5 m/s and the application volume was 105 L/ha.
The effectiveness of the application was evaluated on day 0 and 3 and 7 DAT. 20 leaves in the upper canopy of the plants in each plot were inspected and the number of aphids on each leaf recorded. The percentage of leaves infested and the mean number of aphids per leaf was then determined.
Statistical analyses were conducted using GenStat 64-bit Release 17.1 (PC/Windows Server 2008, VSN International Ltd). The model includes all treatment effects. Analysis of variance and least significant difference (LSD) procedures were used. Further means of separation was achieved by transforming the data using Square Root (x+0.5) or Log Base 10.

In the case of `CC(C)C(=O)C1C(=O)C(C)(C)C(=O)C(C)(C)C1=O` [Flavesone, 1-isobutyroyl-3,3,5,5-tetramethylcyclohexan-2,4,6-trione], the “toxicity to D. noxia” value ([1]; 1-30,000 mg a.i./L) was “toxic to D. noxia”, the LC50 ([1]; Diuraphis noxia, foliar, exposure time not given, read-out: LC50) was 405 µg/mL (≈ 1610 µM) and the mortality at 3000 µg/mL ([1]; Diuraphis noxia, foliar, 3,000 mg a.i./L, largest increase, read-out: increase of mortality between 48 and 96 hours) was 58%. For the same molecule, the mortality at 30000 µg/mL ([1]; Diuraphis noxia, foliar, 30,000 mg a.i./L, 48 hours exposure) was 100%, the LC50 ([1]; exposure time not given) was 405.4 mg a.i./L and the LC90 ([1]; concentration giving 90% mortality, exposure time not given) was 1.5 × 10^4 mg a.i./L. For the same molecule, the LC99 ([1]; concentration giving 99% mortality, exposure time not given) was 8.1 × 10^5 mg a.i./L, the “concentration at which mortality began to increase” value ([1]; in vivo) was 300 mg a.i./L and the “toxicity to green peach aphid” value ([2]; 10 to 100,000 mg/L) was “toxic to green peach aphid”. For the same molecule, the “concentration at which mortality responses began to increase” value ([2]; 48 hours) was 1000 mg/L, the “concentration at which mortality increased” value ([2]; 96 hours) was 1000 mg/L and the mortality at 10000 µg/mL ([2]; Myzus persicae, foliar, 10,000 mg/L, 96 hours) was 100%. The mortality at 30000 µg/mL ([2]; Myzus persicae, foliar, 30,000 mg/L, 48 hours exposure) was 100%, the “Mean Number of Cotton Aphid per leaf” value ([3]; 0.1% v/v, 0 DAT (pre-spray)) was 1.5 ab and the “Mean Percentage of Leaves infested with cotton Aphid” value (from here on “Mean Percentage of Leaves infested”) ([3]; 0.1% v/v, 0 DAT (pre-spray)) was 34%. For the same molecule, the “Mean Number of Cotton Aphid per leaf” value ([3]; 0.1% v/v, 3 DAT) was 1.1 ab, the “Mean Percentage of Leaves infested” value ([3]; 0.1% v/v, 3 DAT) was 15% and the “Mean Number of Cotton Aphid per leaf” value ([3]; 0.1% v/v, 7 DAT) was 2.5 bc. For the same molecule, the “Mean Percentage of Leaves infested” value ([3]; 0.1% v/v, 7 DAT) was 43 c %, the “Mean Number of Cotton Aphid per leaf” value ([3]; 0.25% v/v, 0 DAT (pre-spray)) was 2.6 b and the “Mean Percentage of Leaves infested” value ([3]; 0.25% v/v, 0 DAT (pre-spray)) was 43%. The “Mean Number of Cotton Aphid per leaf” value ([3]; 0.25% v/v, 3 DAT) was 2.1 ab, the “Mean Percentage of Leaves infested” value ([3]; 0.25% v/v, 3 DAT) was 39% and the “Mean Number of Cotton Aphid per leaf” value ([3]; 0.25% v/v, 7 DAT) was 3.1 c. For the same molecule, the “Mean Percentage of Leaves infested” value ([3]; 0.25% v/v, 7 DAT) was 38 bc %, the “Mean Number of Cotton Aphid per leaf” value ([3]; 0.50% v/v, 0 DAT (pre-spray)) was 1.1 . . . ab and the “Mean Percentage of Leaves infested” value ([3]; 0.50% v/v, 0 DAT (pre-spray)) was 30%. The “Mean Number of Cotton Aphid per leaf” value ([3]; 0.50% v/v, 3 DAT) was 1.0 ab, the “Mean Percentage of Leaves infested” value ([3]; 0.50% v/v, 3 DAT) was 19% and the “Mean Number of Cotton Aphid per leaf” value ([3]; 0.50% v/v, 7 DAT) was 2.4 bc. For the same molecule, the “Mean Percentage of Leaves infested” value ([3]; 0.50% v/v, 7 DAT) was 40 c %, the “Mean Number of Cotton Aphid per leaf” value ([3]; 0.75% v/v, 0 DAT (pre-spray)) was 1.4 ab and the “Mean Percentage of Leaves infested” value ([3]; 0.75% v/v, 0 DAT (pre-spray)) was 33%. The “Mean Number of Cotton Aphid per leaf” value ([3]; 0.75% v/v, 3 DAT) was 3.4 b, the “Mean Percentage of Leaves infested” value ([3]; 0.75% v/v, 3 DAT) was 34% and the “Mean Number of Cotton Aphid per leaf” value ([3]; 0.75% v/v, 7 DAT) was 2.7 bc. The “Mean Percentage of Leaves infested” value ([3]; 0.75% v/v, 7 DAT) was 50 c %, the “Mean Number of Cotton Aphid per leaf” value ([3]; 1.00% v/v, 0 DAT (pre-spray)) was 0.6 a and the “Mean Percentage of Leaves infested” value ([3]; 1.00% v/v, 0 DAT (pre-spray)) was 26%. For the same molecule, the “Mean Number of Cotton Aphid per leaf” value ([3]; 1.00% v/v, 3 DAT) was 0.2 a, the “Mean Percentage of Leaves infested” value ([3]; 1.00% v/v, 3 DAT) was 9% and the “Mean Number of Cotton Aphid per leaf” value ([3]; 1.00% v/v, 7 DAT) was 1.0 ab. The “Mean Percentage of Leaves infested” value ([3]; 1.00% v/v, 7 DAT) was 19 b % and the “control of cotton aphid” value ([3]; highest 1% v/v rate) was “slightly better control”.
